From article PMC7188728, “A phase I study investigation of metabolism, and disposition of [^14C]-anlotinib after an oral administration in patients with advanced refractory solid tumors” (Cancer Chemotherapy and Pharmacology, 2020)
Structures can show the parent of a compound that is named as a salt.

Legend:
[1] = Mass balance: excretion of total radioactivity in urine and feces; format: in vivo, human
Description: The urine samples were collected before orally administration and 0–2648 h after orally administration. […] In the process of collecting urine and feces samples of the six patients, because of the excretion particularity of the drug, the samples were not collected continuously every day, but once a week or every 10 days. In this case, the calculation of excretion rate during non-collected days was the multiplication of the first-day excretion rate after non-collected days by the number of non-collected days.
Levels of radioactivity in plasma, urine, and extracts of fecal samples were determined by mixing individual samples with 5 mL scintillation cocktail and determined by counting directly in a liquid scintillation counter (LSC). Blood, fecal homogenates, and post extraction solids were combusted with OX-501 Biological Sample Oxidizer, the ^14CO2 formed were trapped directly in 15 mL scintillation cocktail, followed by counting with LSC. Samples were assayed with a liquid scintillation counter for 5 min.

[2] = Adverse events after a single dose of 14C anlotinib suspension; format: in vivo, human; conditions: D1 ~ D18, N = 6

COc1cc2c(Oc3ccc4[nH]c(C)cc4c3F)ccnc2cc1OCC1(N)CC1 [anlotinib, 1-[[4-(4-fluoro-2-methyl-1H-indol-5-yloxy)-6-methoxyquinolin-7-yl]oxy]methyl) cyclopropanamine dihydrochloride]
Recovery of radioactivity in feces, average ([1]; 0 ~ 2648 h, six patients): 48.52 % dose | Recovery of radioactivity in urine, average ([1]; 0 ~ 2648 h, six patients): 13.51 % dose | Total recovery rate of radioactivity (urine and feces), average ([1]; 0 ~ 2648 h, six patients): 62.03 % dose | Feces (% dose) ([1]; Subject 01, 0 ~ 2648 h): 50.73 % dose | Total recovery rate (% dose) ([1]; Subject 01, 0 ~ 2648 h): 66.24 % dose | Urine (% dose) ([1]; Subject 01, 0 ~ 2648 h): 15.51 % dose | Feces (% dose) ([1]; Subject 02, 0 ~ 2648 h): 42.51 % dose | Total recovery rate (% dose) ([1]; Subject 02, 0 ~ 2648 h): 60.96 % dose | Urine (% dose) ([1]; Subject 02, 0 ~ 2648 h): 18.45 % dose | Feces (% dose) ([1]; Subject 03, 0 ~ 2648 h): 38.93 % dose | Total recovery rate (% dose) ([1]; Subject 03, 0 ~ 2648 h): 50.92 % dose | Urine (% dose) ([1]; Subject 03, 0 ~ 2648 h): 11.99 % dose | Feces (% dose) ([1]; Subject 04, 0 ~ 2648 h): 56.80 % dose | Total recovery rate (% dose) ([1]; Subject 04, 0 ~ 2648 h): 69.09 % dose | Urine (% dose) ([1]; Subject 04, 0 ~ 2648 h): 12.29 % dose | Feces (% dose) ([1]; Subject 05, 0 ~ 2648 h): 59.44 % dose | Total recovery rate (% dose) ([1]; Subject 05, 0 ~ 2648 h): 71.86 % dose | Urine (% dose) ([1]; Subject 05, 0 ~ 2648 h): 12.42 % dose | Feces (% dose) ([1]; Subject 06, 0 ~ 2648 h): 42.69 % dose | Total recovery rate (% dose) ([1]; Subject 06, 0 ~ 2648 h): 53.08 % dose | Urine (% dose) ([1]; Subject 06, 0 ~ 2648 h): 10.39 % dose | Radioactive concentration in feces ([1]; after 404–432 h): 4876 DPM/ml | Radioactive concentration in urine ([1]; after 404–432 h): 279 DPM/ml | Alkaline phosphatase increased: number of cases of grade 1/2 (%) [2]: 1 (16.67%) n (%) | Alkaline phosphatase increased: number of cases of grade 3 (%) [2]: 0 n (%) | Anemia: number of cases of grade 1/2 (%) [2]: 1 (16.67%) n (%) | Anemia: number of cases of grade 3 (%) [2]: 0 n (%) | Aspartate aminotransferase increased: number of cases of grade 1/2 (%) [2]: 0 n (%) | Aspartate aminotransferase increased: number of cases of grade 3 (%) [2]: 1 (16.67%) n (%) | At least once (any adverse event): number of cases of grade 1/2 (%) [2]: 5 (83.33%) n (%) | At least once (any adverse event): number of cases of grade 3 (%) [2]: 3 (50%) n (%) | Constipation: number of cases of grade 1/2 (%) [2]: 2 (33.33%) n (%) | Constipation: number of cases of grade 3 (%) [2]: 0 n (%) | Cough: number of cases of grade 1/2 (%) [2]: 1 (16.67%) n (%) | Cough: number of cases of grade 3 (%) [2]: 0 n (%) | Diarrhea: number of cases of grade 1/2 (%) [2]: 1 (16.67%) n (%) | Diarrhea: number of cases of grade 3 (%) [2]: 0 n (%) | Hemoptysis: number of cases of grade 1/2 (%) [2]: 0 n (%) | Hemoptysis: number of cases of grade 3 (%) [2]: 0 n (%) | Hypertriglyceridemia: number of cases of grade 1/2 (%) [2]: 1 (16.67%) n (%) | Hypertriglyceridemia: number of cases of grade 3 (%) [2]: 0 n (%) | Hypoalbuminemia: number of cases of grade 1/2 (%) [2]: 3 (50%) n (%) | Hypoalbuminemia: number of cases of grade 3 (%) [2]: 0 n (%) | Hypocalcemia: number of cases of grade 1/2 (%) [2]: 1 (16.67%) n (%) | Hypocalcemia: number of cases of grade 3 (%) [2]: 0 n (%) | Hypophosphatemia: number of cases of grade 1/2 (%) [2]: 1 (16.67%) n (%) | Hypophosphatemia: number of cases of grade 3 (%) [2]: 1 (16.67%) n (%) | Hypothyroidism: number of cases of grade 1/2 (%) [2]: 1 (16.67%) n (%) | Hypothyroidism: number of cases of grade 3 (%) [2]: 0 n (%) | Increased alanine aminotransferase: number of cases of grade 1/2 (%) [2]: 1 (16.67%) n (%) | Increased alanine aminotransferase: number of cases of grade 3 (%) [2]: 1 (16.67%) n (%) | Increased blood bilirubin: number of cases of grade 1/2 (%) [2]: 1 (16.67%) n (%) | Increased blood bilirubin: number of cases of grade 3 (%) [2]: 1 (16.67%) n (%) | Increased lactate dehydrogenase: number of cases of grade 1/2 (%) [2]: 1 (16.67%) n (%) | Increased lactate dehydrogenase: number of cases of grade 3 (%) [2]: 0 n (%) | Increased lipase: number of cases of grade 1/2 (%) [2]: 2 (33.33%) n (%) | Increased lipase: number of cases of grade 3 (%) [2]: 2 (33.33%) n (%) | Increased γ-glutamyl transpeptidase: number of cases of grade 1/2 (%) [2]: 1 (16.67%) n (%) | Increased γ-glutamyl transpeptidase: number of cases of grade 3 (%) [2]: 1 (16.67%) n (%) | Insomnia: number of cases of grade 1/2 (%) [2]: 2 (33.33%) n (%) | Insomnia: number of cases of grade 3 (%) [2]: 0 n (%) | Liver function damage: number of cases of grade 1/2 (%) [2]: 0 n (%)
